The values below come from publication PMC9026285 (ACS Chemical Neuroscience, 2022).

A word on the EC50: it is the concentration that produces a half-maximal response. As usually defined, the half-life is the time in which the quantity being followed falls by half.

The conditions of series [1]: cited from earlier work.
Series [2] concerns the target HexA/B from human placenta. The experiment in a line: Hexosaminidase A/B assay. The format is biochemical.
The target of series [3] is T1, recombinant human HexA (Homo sapiens, UniProt P06865).
T1 sequence (P06865 89-529): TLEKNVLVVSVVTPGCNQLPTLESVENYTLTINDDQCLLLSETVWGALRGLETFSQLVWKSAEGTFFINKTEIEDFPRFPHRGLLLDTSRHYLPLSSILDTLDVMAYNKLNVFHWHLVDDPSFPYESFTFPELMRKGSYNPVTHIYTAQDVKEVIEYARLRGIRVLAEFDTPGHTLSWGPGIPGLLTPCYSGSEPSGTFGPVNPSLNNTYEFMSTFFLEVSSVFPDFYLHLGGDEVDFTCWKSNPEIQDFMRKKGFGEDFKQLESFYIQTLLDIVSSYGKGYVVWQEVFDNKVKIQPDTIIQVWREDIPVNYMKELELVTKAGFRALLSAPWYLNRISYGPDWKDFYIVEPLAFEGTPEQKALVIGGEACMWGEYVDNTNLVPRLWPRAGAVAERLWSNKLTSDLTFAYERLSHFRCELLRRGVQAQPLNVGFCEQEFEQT
Put plainly: Hexosaminidase A assay. The format is biochemical.

Series [4] concerns protein O-GlcNAcylation in human PBMC. Put plainly: In vitro PBMC cell-based assay, human PBMC. The following applies: 4 h, read-out: EC50, protein O-GlcNAcylation in human PBMC.
Series [5] has as its system hTauP301L mice. Put plainly: Chronic. The format is in vivo, mouse. Conditions: P301L mice.
In series [6] the test system is Line 61 α-synuclein transgenic mice. The experiment in a line: Beam walk test in Line 61 α-synuclein transgenic mice, chronic treatment. The format is in vivo, mouse. Conditions: Line 61 mice, 30 and 100 mg/kg/day oral, after 12 weeks, persisted to week 24.
Series [7] has as its system brain protein and α-synuclein O-GlcNAcylation. Put plainly: O-protein and O-GlcNAcylated α-synuclein. The following applies: Line 61 mice; for increase in brain protein O-GlcNAcylation (mean): 24 weeks, t = 4 h post-dose.
A short description of series [8]: Half-life in mice. Conditions: mouse, in vivo.
The subject of series [9] is GFAP (astrogliosis), pS129 and human α-synuclein. The experiment in a line: GFAP immunoassay and histopathology in Line 61 mice. The following applies: hippocampus, 24 weeks. The format is in vivo, mouse.
Where [10] appears, read: up to the highest concentration tested (30 μM).

For the molecule `CCN=C1N[C@@H]2[C@@H](O)[C@H](O)[C@@H](CO)O[C@@H]2S1` [Thiamet G], the brain-to-plasma ratio in series [1] is on record as 0.1.
On to `CC(=O)N[C@H]1/C(=N/OC(=O)Nc2ccccc2)O[C@H](CO)[C@@H](O)[C@@H]1O` [PUGNAc, reference compound], for which the IC50 in [2] (read-out: IC50 HexA/B) was 31 nM; in series [3], 490 nM.
As to `CC(=O)Nc1nnc(N2CCN([C@@H](C)c3ccc4c(c3)OCO4)CC2)s1` [ASN90, (S)-N-(5-(4-(1-(benzo[d][1,3]dioxol-5-yl)ethyl)piperazin-1-yl)-1,3,4-thiadiazol-2-yl)acetamide], the EC50 in series [4] is 209 nM. For the same molecule, in series [5] (30 and 100 mg/kg/day oral, 6 months), the survival result is given as “significantly increased survival”. In series [5] (brainstem and hippocampus, chronic treatment), the “effect on pathogenic tau pS202/205 (AT8)” value was “no statistically significant treatment effects”. In addition, the “motor performance in three types of beam walk (slips)” value in series [6] is listed as “highly significant treatment benefit”. In addition, the “increase in brain protein O-GlcNAcylation (mean)” value is listed as “+78%” in series [7] (30 mg/kg/day) and “+105%” in series [7] (100 mg/kg/day). Besides, in [7] (100 mg/kg, chronic, vs vehicle), the “increase of O-GlcNAcylated α-synuclein as % of total” value came to 1.7 fold. In [8], the half-life was 2.8 h. The “object size for pS129 α-synuclein immunoreactivity” value in series [9] is reported as “significant decrease”. Moreover, the “total α-synuclein immunoreactivity” value in [9] is “unchanged”. Also, the “inhibitory activity on HexA/B” value in series [2] (setting [10]) is listed as “no inhibitory activity”. Besides, the “inhibitory activity on HexA” value in series [3] (setting [10]) is “no inhibitory activity”.
